From US20130084322A1, “DRUG-IMPREGNATED BIODEGRADABLE STENT AND METHODS OF MAKING THE SAME” (Tim Wu, priority 2010, published 2013)
Entries after “also recorded” stand apart in the source; their conditions may differ.

Legend:
[1] = HPLC analysis of paclitaxel in the formed tube/stent (stability to extrusion); assay type: physicochemical; conditions: extraction in 50% ethanol and 50% methanol overnight at room temperature; FIG. 2
Protocol: The 10 μl extracting solutions were further analyzed by HPLC (HP16 series 1090, Hewlett-Packard Co. Palo Alto, Calif.). The samples were analyzed on a C18-reverse phase column (HP: 4.6×100 mm RP18) using a mobile phase consisting of 0.005% TFA buffer (0.05 ml Trifluoroacetic acid in 1000 ml acetonitrile) delivered at a flow rate of 1.0 mL/min.

[2] = after releasing from stent; through specific binding to binding proteins; cited from earlier work

| SMILES | stability of paclitaxel during extrusion (HPLC peaks, pre-extrusion vs stent samples) [1] | retention in blood vessel wall [2] |
| --- | --- | --- |
| CC(=O)O[C@H]1C(=O)[C@@]2(C)[C@H]([C@H](OC(=O)c3ccccc3)[C@]3(O)C[C@H](OC(=O)[C@H](O)[C@@H](NC(=O)c4ccccc4)c4ccccc4)C(C)=C1C3(C)C)[C@]1(OC(C)=O)CO[C@@H]1C[C@@H]2O [paclitaxel] | not decomposed during extrusion; also recorded: survived the elevated extrusion temperature and are stable inside the stent strut | – |
| CO[C@H]1C[C@@H]2CC[C@@H](C)[C@@](O)(O2)C(=O)C(=O)N2CCCC[C@H]2C(=O)O[C@H]([C@H](C)C[C@@H]2CC[C@@H](O)[C@H](OC)C2)CC(=O)[C@H](C)/C=C(\C)[C@@H](O)[C@@H](OC)C(=O)[C@H](C)C[C@H](C)/C=C/C=C/C=C/1C [sirolimus] | – | up to three days |
